The target of one experiment is T1, E. coli ArnT (Escherichia coli, UniProt P76473).
T1 construct: it carries the endogenous E. coli ArnT gene; endogenous in cells; host or cells: E. coli BL21(DE3)
Kind of experiment: Polymyxin B growth assay for compound screening, BL21 strain. It is filed as cell-based. The conditions noted are these: E. coli BL21 strain carrying E. coli ArnT; compound 0.5 mM; 3 μg/ml Polymyxin B; OD 600 nm. An excerpt: (§1) FIGS. 8A-J show graphic results of the polymyxin growth assay for the five Class I compounds obtained in target-based virtual screening. In this and all subsequent figures showing results of compound testing in the polymyxin growth assay, four curves are shown, (i) growth of test strain (BL21 for targeting E. coli ArnT or Gi24 for targeting S. typhimurium ArnT) in the absence of PMXB (−PMXB, represented by an open circle), (ii) growth of test strain in the presence of PMXB (+PMXB, represented by an open square), (iii) growth of test strain in the absence of PMXB and in the presence of test compound (−PMXB+Cmpd, represented by open diamond), and (iv) growth of test strain in the presence of PMXB and test compound (+PMXB+Cmpd, represented by an […]). Each point in the curves represents the mean of six measurements of absorbance (OD) at 600 nm (triplicate samples from two independent experiments). Standard deviation is not shown, but typically ranged from 0.001 to 0.1. Growth of E. coli BL21 strain (carrying the E. coli ArnT) was measured in the presence of Class I compounds 20, 14, 15, 19, or U2 (FIGS. 8A, 8C, SE, 8G and 8I, respectively). Growth of E. coli Gi24 strain (carrying the S. typhimurium ArnT) was measured in the presence of Class I compounds 20, 14, 15, 19, or U2 (FIGS. 8B, 8D, 8F, 8H and 8J, respectively). […]

Experiment [1] deals with T2, Salmonella typhimurium ArnT (Salmonella typhimurium, UniProt O52327).
T2 construct: expressed in transfected cells; host or cells: E. coli BL21(DE3) ΔArnT transformed with plasmid pGi24 (strain Gi24)
Kind of experiment: Polymyxin B growth assay for compound screening, Gi24 strain. It is filed as cell-based. The note with it: E. coli Gi24 strain carrying S. typhimurium ArnT; compound 0.5 mM; 3 μg/ml Polymyxin B; OD 600 nm.
Source text: as §1

For experiment [2], the system named is Gi24 strain (E. coli BL21 ΔArnT expressing wt Salmonella typhimurium ArnT). Kind of experiment: Control polymyxin growth assay, Gi24 strain. The class given is cell-based, Escherichia coli. The note with it: Gi24: BL21 ΔArnT with plasmid pGi24 expressing wt S. typhimurium ArnT. An excerpt:
(§2) E. coli BL21 strain is used to test efficacy of tested compounds towards the E. coli ArnT protein. […] Gi24 is E. coli BL21 ΔArnT that has been transformed with the plasmid pGi24 that expresses the wt Salmonella typhimurium ArnT. […] The Gi24 strain is used to test efficacy of tested compounds towards the Salmonella typhimurium ArnT protein.
(§3) Three strains were used for the implementation of the polymyxin B growth assay for compound screening in a 96-well plate format: (1) BL21 (DE3) E. coli strain (referred to as BL21). […] E. coli BL21 strain is used to test efficacy of tested compounds towards the E. coli ArnT protein. (2) E. coli BL21(DE3) ΔArnT the endogenous E. coli ArnT gene has been deleted, thus rendering the E. coli BL21 ΔArnT strain sensitive to polymyxin B (referred to as ΔArnT). (3) E. coli BL21(DE3) ΔArnT that has been transformed with the plasmid pGi24 that expresses the wt Salmonella typhimurium ArnT (referred to as Gi24). […]
(§4) Overnight cultures of the three strains were used to inoculate LB media containing 100 μg/ml Ampicillin alone (PMXB−) or 100 μg/ml and 3 μg/ml Polymyxin B (PMXB+) at 1:2000 dilution, as appropriate. […] The 96-well plate was transferred to an Epoch 2 microplate reader (Biotek) and shaken continuously at 37° C. Growth was continuously quantitated spectrophotometrically at 600 nm. […]

For experiment [3], the system named is E. coli BL21 ΔArnT strain. The experiment in a line: Control polymyxin growth assay, BL21 ΔArnT strain. It is filed as cell-based, Escherichia coli. The conditions noted are these: endogenous ArnT gene deleted.
Source text: as §2, §3, §4

Another experiment concerns E. coli BL21 strain. Kind of experiment: Control polymyxin growth assay, BL21 strain. The conditions noted are these: E. coli BL21, endogenous E. coli ArnT gene. The class given is cell-based, Escherichia coli.
Source text: as §2, §3, §4

T1 sequence (P76473 whole entry): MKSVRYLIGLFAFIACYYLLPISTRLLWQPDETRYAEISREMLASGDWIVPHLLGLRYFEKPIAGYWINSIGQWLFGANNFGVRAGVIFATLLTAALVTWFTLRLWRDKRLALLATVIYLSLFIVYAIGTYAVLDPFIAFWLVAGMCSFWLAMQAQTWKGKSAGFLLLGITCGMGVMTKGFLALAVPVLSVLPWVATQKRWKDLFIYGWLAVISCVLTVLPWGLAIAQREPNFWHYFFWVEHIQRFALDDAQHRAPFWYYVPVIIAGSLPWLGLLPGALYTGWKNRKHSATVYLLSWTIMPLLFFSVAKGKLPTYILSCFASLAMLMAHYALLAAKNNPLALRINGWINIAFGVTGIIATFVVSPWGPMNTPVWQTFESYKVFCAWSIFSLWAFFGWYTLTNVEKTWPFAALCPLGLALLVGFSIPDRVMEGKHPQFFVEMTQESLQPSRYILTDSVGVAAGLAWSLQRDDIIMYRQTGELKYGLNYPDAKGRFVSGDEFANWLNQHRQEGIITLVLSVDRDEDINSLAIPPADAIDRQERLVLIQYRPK

As to `Cc1[nH]nc(O)c1C(c1ccc(Cl)cc1)c1c(O)n[nH]c1C` [Compound 20, 4-[(4-chlorophenyl)-(3-methyl-5-oxo-1,2-dihydropyrazol-4-yl)methyl]-5-methyl-1,2-dihydropyrazol-3-one], the “ArnT inhibiting activity (retardation of growth of polymyxin resistant strain in the presence of PMXB)” value (at E. coli ArnT; in experiment [1]) was “especially strong ArnT inhibiting activity” each time.

Consider polymyxin B, for which the “growth of strain in the presence of PMXB” value in experiment [2] was “growth of Gi24 strain in the presence of PMXB”; in experiment [3] it was “absence of growth”; in the experiment with E. coli BL21 strain, “inherently resistant”.

The values above are taken from patent publication US10925857B2, “Rational drug design targeting resistant gram-negative bacterial infections to polymyxin-class antibiotics” (The Trustees of Columbia University in the City of New York, priority 2015, dated 2021).
